Assay results reported in paper PMC9696794, “Synthesis and Antimicrobial Activity of Short Analogues of the Marine Antimicrobial Peptide Turgencin A: Effects of SAR Optimizations, Cys-Cys Cyclization and Lipopeptide Modifications” (International Journal of Molecular Sciences, 2022).
Values after ≈ are worked out from the molar mass of the structure shown. Where a SMILES comes first, the peptide text is derived from it. Bridges are numbered along the chain shown (N, C = ends). The star is where a group is joined. Lauroyl = CCCCCCCCCCCC(=O)*

Experiments:
[1] = test system: B. subtilis (Bs, ATCC 23857); assay: microbe, parasite or virus in culture; assay type: cell-based, Bacillus subtilis; conditions: ATCC 23857, 24 h
Summary of the method: (§1)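 Cultures grown in Mueller–Hinton broth were adjusted by OD600 to 2.5–3 × 10^4 CFU/mL and mixed with two-fold peptide dilutions from 256 to 1 µg/mL. Plates were incubated at 35 °C with OD595 monitored every hour for 24 h.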

[2] = test system: C. glutamicum (Cg, ATCC 13032); assay: microbe, parasite or virus in culture; assay type: cell-based, Corynebacterium glutamicum; conditions: ATCC 13032, 24 h
Summary of the method: as §1

[3] = test system: S. aureus (Sa, ATCC 9144); assay: microbe, parasite or virus in culture; assay type: cell-based, Staphylococcus aureus; conditions: ATCC 9144, 24 h
Summary of the method: as §1

[4] = test system: S. epidermidis RP62A (Se, ATCC 35984); assay: microbe, parasite or virus in culture; assay type: cell-based, Staphylococcus epidermidis; conditions: ATCC 35984, 24 h
Summary of the method: as §1

E. coli (Ec, ATCC 25922) = assay: microbe, parasite or virus in culture; assay type: cell-based, Escherichia coli; conditions: ATCC 25922, 24 h
Summary of the method: as §1

[5] = test system: P. aeruginosa (Pa, ATCC 27853); assay: microbe, parasite or virus in culture; assay type: cell-based, Pseudomonas aeruginosa; conditions: ATCC 27853, 24 h
Summary of the method: as §1

all bacterial strains = assay: Antibacterial MIC assay, all bacterial strains together (range or geometric mean); assay type: cell-based; conditions: for GM (geometric mean of the MIC values against all bacterial strains): Table 1, six bacterial strains; for GM of MIC Tot. bact.: Table S3, all bacterial test strains, MIC >256 set to 256
Summary of the method: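 Broth microdilution in Mueller–Hinton broth against B. subtilis, C. glutamicum, S. aureus, S. epidermidis RP62A, E. coli and P. aeruginosa; inoculum 2.5–3 × 10^4 CFU/mL, 35 °C, OD595 read hourly for 24 h. MIC: lowest peptide concentration giving OD below 10% of growth control; geometric mean across strains, triplicate.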

A. pullulans (Ap) = assay: microbe, parasite or virus in culture; assay type: cell-based, Aurobasidium pollulans; conditions: 48 h
Summary of the method: (§2)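 Overnight cultures in potato dextrose broth with 2% glucose at 25–30 °C were diluted to approx. 4 × 10^5 spores/mL and mixed 1:1 with two-fold peptide dilutions plated at 256 to 1 µg/mL. After 48 h at room temperature, OD600 was read. MIC was the lowest concentration giving OD below 10% of the growth control, in triplicate.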

[6] = test system: C. albicans (Ca, ATCC 10231); assay: microbe, parasite or virus in culture; assay type: cell-based, Candida albicans; conditions: ATCC 10231, 48 h
Summary of the method: as §2

Rhodotorula sp. (Rh) = assay: microbe, parasite or virus in culture; assay type: cell-based; conditions: 48 h
Summary of the method: as §2

[7] = test system: human red blood cells (RBC); assay: Haemolytic activity assay; assay type: cell-based; conditions: for Selectivity index (SI) G+: EC50/GM of Gram-positive strains; for RBC Tox. (EC50), haemolytic activity: human RBC, 1 h, 37 °C, concentration giving 50% haemolysis
Summary of the method: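 Washed human erythrocytes (1% hematocrit final) incubated 1 h at 37 °C with agitation with lipopeptides at 500–3.9 μM in PBS (≤1% DMSO), duplicates. Haemoglobin release read at 545 nm relative to 0.1% Triton X-100; EC50 is 50% haemolysis, averaged from three experiments.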

[8] = test system: E. coli MC4100 (wild type, WT); assay: microbe, parasite or virus in culture; conditions: wild type
Method: (§3) All cyclic and linear peptides were screened for antibacterial activity against four Gram-positive strains: B. subtilis (Bs, ATCC 23857), C. glutamicum (Cg, ATCC 13032), S. aureus (Sa, ATCC 9144) and S. epidermidis RP62A (Se, ATCC 35984), and two Gram-negative strains: E. coli (Ec, ATCC 25922) and P. aeruginosa (Pa, ATCC 27853). The activity was assessed using a broth microdilution assay according to a modified CLSI-based method. Briefly, overnight bacterial cultures were grown in Mueller–Hinton (MH) broth medium (Difco Laboratories, Detroit, MI, USA) for 2 h at room temperature. The optical density (OD600) was measured, and the bacterial suspensions were adjusted to 2.5–3 × 10^4 CFU/mL in MH medium. The bacterial suspension (50 µL) was distributed in 96-well plates (Nunc, Roskilde, Denmark) preloaded with two-fold dilution series (256 to 1 µg/mL) of peptide solutions (50 µL), giving a final well volume of 100 µL. The microplates were incubated in an EnVision 2103 microplate reader (PerkinElmer, Llantrisant, UK) at 35 °C, with OD595 recorded every hour for 24 h. MIC was defined as the lowest concentration of peptides showing an optical density less than 10% of the negative (growth) control, consisting of bacterial suspension and water. Polymyxin B sulfate (Sigma-Aldrich, St. Louis, MO, USA) and chlorhexidine acetate (CHX, Fresenius Kabi, Halden, Norway), both with concentrations ranging from 12.5 to 0.09 μg/mL, served as positive (growth inhibition) controls. All peptides were tested in triplicate.
(§4) MIC values were determined for all cyclic peptides against two E. coli strains: wild type (WT) MC4100 and the hyperpermeable variant NR698, having a deficient outer membrane. The NR698 strain, containing lptD4213/imp4213 mutation, was kindly provided by M. Grabowicz (Emory University School of Medicine, Rollins Research Center, Atlanta, GA, USA). The assay was performed in the same way as previously described for the antibacterial MIC assay.

[9] = test system: E. coli NR698 (outer membrane permeable mutant, imp4213); assay: microbe, parasite or virus in culture; conditions: MC4100 NR698 imp4213, deficient outer membrane
Method: as §3, §4

[10] = test system: Gram-positive bacterial strains; conditions: Table S3; MIC >256 set to 256
Summary of the method: as §1

[11] = test system: Gram-negative bacterial strains (E. coli and P. aeruginosa); assay: Antibacterial MIC assay, Gram-negative strains together (range or geometric mean); assay type: cell-based; conditions: Table S3; MIC >256 set to 256
Summary of the method: as §1

[12] = test system: fungi (A. pullulans, C. albicans, Rhodotorula sp.); assay: Antifungal MIC assay, all fungi together (range or geometric mean); assay type: cell-based; conditions: Table S3; MIC >128 set to 128
Summary of the method: as §2

[13] = Table S3, highest tested concentration used where EC50 above it

Row | SMILES | Antimicrobial Activity (MIC) Gram + Bs [1] | Antimicrobial Activity (MIC) Gram + Cg [2] | Antimicrobial Activity (MIC) Gram + Sa [3] | Antimicrobial Activity (MIC) Gram + Se [4] | Antimicrobial Activity (MIC) Gram − Ec (E. coli (Ec, ATCC 25922)) | Antimicrobial Activity (MIC) Gram − Pa [5] | GM (geometric mean of the MIC values against all bacterial strains) (all bacterial strains) | GM of MIC Tot. bact. (all bacterial strains) | Antimicrobial Activity (MIC) Fungi Ap (A. pullulans (Ap)) | Antimicrobial Activity (MIC) Fungi Ca [6] | Antimicrobial Activity (MIC) Fungi Rh (Rhodotorula sp. (Rh)) | Selectivity index (SI) G+ [7, 13] | RBC Tox. (EC50), haemolytic activity [7] | MIC E. coli MC4100 (WT) [8] | MIC E. coli NR698 (mutant) [9] | GM of MIC G+ [10] | GM of MIC G- [11] | GM of MIC Fungi [12] | other results
1 | CC(C)C[C@H](NC(=O)[C@H](CCCNC(=N)N)NC(=O)[C@@H]1CSSC[C@H](N)C(=O)NCC(=O)N[C@@H](CCCNC(=N)N)C(=O)N[C@@H](CCCNC(=N)N)C(=O)N2CCC[C@H]2C(=O)N[C@@H](Cc2c[nH]c3ccccc23)C(=O)N[C@@H](Cc2c[nH]c3ccccc23)C(=O)N[C@@H](Cc2c[nH]c3ccccc23)C(=O)N[C@@H](CCCNC(=N)N)C(=O)N1)C(N)=O [cTurg-7] (H-CGRRPWWWRCRL-NH2; disulfide 1-10; N-terminus assumed) | 4 µg/mL | 4 µg/mL | 16 µg/mL | 8 µg/mL | 16 µg/mL | 32 µg/mL | 10 µg/mL | 10 µg/mL | 32 µg/mL | 32 µg/mL | 32 µg/mL | 29 | 197 µg/mL | 8 µg/mL (≈ 4.78 µM) | 8 µg/mL (≈ 4.78 µM) | 7 µg/mL | 23 µg/mL | 32 µg/mL | Selectivity index (SI) G- ([7]; Table S3, EC50/GM of Gram-negative strains, highest tested concentration used where EC50 above it): 9; Selectivity index (SI) Fungi ([7]; Table S3, EC50/GM of fungi, highest tested concentration used where EC50 above it): 6; SI (selectivity index = EC50/GM) ([7]; haemolytic EC50 over GM of MIC against all bacterial strains, Table 1): 20
2 | CCCCCCCCCCCC(=O)N[C@H]1CSSC[C@@H](C(=O)N[C@@H](CCCNC(=N)N)C(=O)N[C@@H](CC(C)C)C(N)=O)NC(=O)[C@H](CCCNC(=N)N)NC(=O)[C@H](Cc2c[nH]c3ccccc23)NC(=O)[C@H](Cc2c[nH]c3ccccc23)NC(=O)CNC(=O)[C@H](Cc2c[nH]c3ccccc23)NC(=O)[C@H](CCCNC(=N)N)NC(=O)[C@H](CCCNC(=N)N)NC(=O)CNC1=O [Peptide C12-cTurg-6, C12- (CGRRWGWWRC)RL-NH2] (Lauroyl-CGRRWGWWRCRL-NH2; disulfide 1-10) | 8 µg/mL | 8 µg/mL | 16 µg/mL | 8 µg/mL | 32 µg/mL | 32 µg/mL | 14 µg/mL | 14 µg/mL | 64 µg/mL | 128 µg/mL | 64 µg/mL | 1 | 9 µg/mL | 16 µg/mL (≈ 8.82 µM) | 16 µg/mL (≈ 8.82 µM) | 10 µg/mL | 32 µg/mL | 81 µg/mL | Selectivity index (SI) Tot. bact. ([7]; Table S3, EC50/GM of all bacterial strains, highest tested concentration used where EC50 above it): 1
